{"source": "patent US20170281642A1", "about": "“METHODS OF TREATING ACUTE MYELOID LEUKEMIA OR ACUTE LYMPHOID LEUKEMIA USING PHARMACEUTICAL COMPOSITIONS CONTAINING THIENOTRIAZOLODIAZEPINE COMPOUNDS” (ONCOETHIX GmbH, priority 2014, published 2017)", "key": {"AML and ALL cell lines [1]": {"system": "AML and ALL cell lines", "experiment": "apoptosis by Annexin V staining and PI uptake", "format": "cell-based", "settings": "72 h; for apoptotic cells: 500 nM", "experimental": "(§1) At 500 nM compound (1-1), 30-90% of cells were apoptotic in five of nine AML cell lines (HEL, NB4, NOMO-1, OCI-AML3, KASUMI) and 50-90% in two of four ALL cell lines (JURKAT and RS4-11; FIG. 14C)."}, "BRD4": {"system": "BRD4", "experiment": "BRD4 protein expression in acute leukemia cell lines", "format": "cell-based", "settings": "500 nM; only OCI-AML3, NB4 and K562 cell lines"}, "[2]": {"system": "caspase-3 and cytochrome c", "experiment": "caspase-3 activation and cytochrome c release in cell lines", "format": "cell-based", "settings": "500 nM, 72 h", "experimental": "as §1"}, "BRD2 [3]": {"system": "BRD2", "experiment": "BRD2 protein expression in acute leukemia cell lines", "format": "cell-based", "settings": "500 nM; most cell lines (OCI-AML3, JURKAT, RS4-11, NB4, NOMO-1, HL60)"}, "[4]": {"system": "caspase-3 and cytochrome c", "experiment": "ex vivo caspase-3 activation and mitochondrial cytochrome c release in AML patient samples", "format": "cell-based, human", "settings": "samples from three AML patients", "experimental": "(§2) Apoptosis, mRNA and protein expression were evaluated in BM mononuclear cells obtained from representative newly diagnosed or relapsed ALL and AML patients, see Table 7, treated in the context of an ongoing Phase Ib study with compound (1-1) and for whom sufficient material for analysis was available. Apoptosis induction by exposure to 500 nM compound (1-1) for 72 h was variable among the patient samples tested (FIG. 15A)."}, "BRD2 [5]": {"system": "BRD2", "experiment": "ex vivo BRD2 protein expression in primary AML samples", "format": "cell-based, human", "settings": "500 nM, 72 h; three primary AML samples"}, "HEXIM1": {"system": "HEXIM1", "experiment": "HEXIM1 mRNA and protein expression in acute leukemia cell lines", "format": "cell-based"}, "[6]": {"system": "BM mononuclear cells from ALL and AML patients", "experiment": "ex vivo apoptosis in BM mononuclear cells of ALL and AML patients", "format": "cell-based, human", "settings": "500 nM, 72 h", "experimental": "as §2"}, "[7]": {"system": "nine AML and four ALL cell lines", "experiment": "cell viability, MTT assay", "format": "cell-based", "experimental": "Cellular effects of compound (1-1) in various acute leukemia subtypes were evaluated. Cell viability after compound (1-1) exposure was evaluated with the MTT assay in nine AML and four ALL cell lines. Significant growth inhibition, defined as submicromolar IC50, was found in six of nine AML cell lines and all four ALL cell lines tested. The K562, KG1a and HL60 AML cell lines were resistant to compound (1-1)."}, "AML and ALL cell lines [8]": {"system": "AML and ALL cell lines", "experiment": "cell cycle analysis", "format": "cell-based", "settings": "500 nM, 48 h"}, "c-MYC [9]": {"system": "c-MYC", "experiment": "c-MYC mRNA (quantitative RT-PCR) and protein (Western blotting) expression in acute leukemia cell lines", "format": "cell-based", "settings": "500 nM"}, "BRD3": {"system": "BRD3", "experiment": "BRD3 protein levels in acute leukemia cell lines", "format": "cell-based", "settings": "500 nM; all cell lines evaluated"}, "BRD2/3/4": {"system": "BRD2/3/4", "experiment": "BRD2/3/4 expression in acute leukemia cell lines", "format": "cell-based", "settings": "500 nM, 48 h"}, "c-MYC [10]": {"system": "c-MYC", "experiment": "ex vivo c-MYC mRNA and protein expression in patient samples", "format": "cell-based, human", "settings": "500 nM", "experimental": "as §2"}}, "note": "Entries after “also recorded” stand apart in the source; their conditions may differ.", "data": [{"smiles": "Cc1sc2c(c1C)C(c1ccc(Cl)cc1)=N[C@@H](CC(=O)Nc1ccc(O)cc1)c1nnc(C)n1-2", "note": "[compound (1-1), 2-[(6S)-4-(4-chlorophenyl)-2,3,9-trimethyl-6H-thienol[3,2-f]-[1,2,4]triazolo[4,3-a][1,4]diazepin-6-yl]-N-(4-hydroxyphenyl)acetamide dihydrate]", "values": [{"measurement": "apoptotic cells", "setting": "AML and ALL cell lines [1]; five of nine AML cell lines (HEL, NB4, NOMO-1, OCI-AML3, KASUMI)", "result": "30-90%"}, {"measurement": "apoptotic cells", "setting": "AML and ALL cell lines [1]; two of four ALL cell lines (JURKAT and RS4-11)", "result": "50-90%"}, {"measurement": "apoptosis (Annexin V staining and PI uptake)", "setting": "AML and ALL cell lines [1]; 25 to 500 nM", "result": "significant apoptosis"}, {"measurement": "BRD4 protein expression", "setting": "BRD4", "result": "decreased"}, {"measurement": "caspase-3 activation", "setting": "[2]", "result": "activated"}, {"measurement": "cytochrome c release", "setting": "[2]", "result": "induced"}, {"measurement": "BRD2 protein expression", "setting": "BRD2 [3]", "result": "decrease"}, {"measurement": "activation of caspase-3", "setting": "[4]", "result": "induced activation"}, {"measurement": "mitochondrial cytochrome c release", "setting": "[4]", "result": "induced"}, {"measurement": "BRD2 protein expression", "setting": "BRD2 [5]", "result": "clearly decreased"}, {"measurement": "HEXIM1 mRNA expression", "setting": "HEXIM1; 500 nM, 4 and 24 h, K562, HL-60, NB4, NOMO-1, KG1, OCI-AML3, JURKAT, RS4-11", "result": "increased"}, {"measurement": "HEXIM1 protein levels", "setting": "HEXIM1; 500 nM, 24-72 h, OCI-AML3, JURKAT and RS4-11 cell lines, dihydrate", "result": "Increases"}, {"measurement": "HEXIM1 mRNA expression", "setting": "HEXIM1; 500 nM, 24 h, all cell lines except K562", "result": "increased"}, {"measurement": "HEXIM1 mRNA expression, increase", "setting": "HEXIM1; 500 nM, 24 h, compound (1-1) resistant K562 cells", "result": "insignificant (less than twice)"}, {"measurement": "HEXIM1 upregulation, rank among cell lines", "setting": "HEXIM1; OCI-AML3 and RS4-11 cell lines", "result": "highest"}, {"measurement": "apoptosis", "setting": "[6]; 6 of 14 AML patients (4, 8, 9, 14, 16, 18)", "result": "no or a mild increase"}, {"measurement": "increased apoptosis compared to control-treated cells", "setting": "[6]; BM cells from 8 of 14 AML patients (3, 15, 17, 26, 27, 28, 31, 38)", "result": "35-90%"}, {"measurement": "apoptosis", "setting": "[6]; two ALL patients (40 and 43)", "result": "no or a mild increase"}, {"measurement": "sensitivity to compound (1-1), MTT", "setting": "[7]; K562, KG1a and HL60 AML cell lines", "result": "resistant"}, {"measurement": "IC50 (growth inhibition, MTT)", "setting": "[7]; six of nine AML cell lines and all four ALL cell lines", "result": "submicromolar"}, {"measurement": "cells in the sub-G1 phase", "setting": "AML and ALL cell lines [8]; KG1a, KG1, HEL, KASUMI and JURKAT", "result": "significant increase"}, {"measurement": "transition from G1 to S-phase", "setting": "AML and ALL cell lines [8]; all 13 cell lines", "result": "decreased"}, {"measurement": "c-MYC protein levels", "setting": "c-MYC [9]; 24-72 h, all cell lines evaluated other than KG1 (OCI-AML3, K562, NB4, NOMO-1, HL60, JURKAT, RS4-11), dihydrate", "result": "decreased to a variable extent; also recorded: Decreases"}, {"measurement": "c-MYC gene expression", "setting": "c-MYC [9]; 4 h and 24 h, same cell lines and KG1", "result": "decreased ubiquitously"}, {"measurement": "c-MYC RNA levels", "setting": "c-MYC [9]; 24 h, all AML and ALL cell lines (K562, HL-60, NB4, NOMO-1, KG1, OCI-AML3, JURKAT, RS4-11)", "result": "ubiquitously downregulated"}, {"measurement": "BRD3 protein levels", "setting": "BRD3", "result": "unmodified"}, {"measurement": "BRD2, BRD3 and BRD4 mRNA expression", "setting": "BRD2/3/4; HL60 and NOMO-1 cells", "result": "increased"}, {"measurement": "BRD2, BRD3 and BRD4 mRNA expression", "setting": "BRD2/3/4; K562 and NB4 cell lines", "result": "dramatically decreased"}, {"measurement": "BRD2, BRD3 and BRD4 mRNA expression", "setting": "BRD2/3/4; K562 cells", "result": "significantly decreased"}, {"measurement": "BRD2, BRD3 and BRD4 mRNA expression", "setting": "BRD2/3/4; KG1, OCI-AML3, JURKAT, BV-173 and RS4-11", "result": "mild variations"}, {"measurement": "BRD2, BRD3 and BRD4 mRNA expression", "setting": "BRD2/3/4; other cell lines (Example 7)", "result": "minimal to no increases"}, {"measurement": "c-MYC mRNA expression", "setting": "c-MYC [10]; 48 h, seven AML samples and two ALL samples", "result": "downregulated"}, {"measurement": "c-MYC protein expression", "setting": "c-MYC [10]; 72 h, three primary AML samples", "result": "clearly decreased"}]}]}
